This is an account of results in patent US20120058974A1, “Composition comprising pesticide and benzotriazole UV absorbers” (BASF SE, priority 2009, published 2012).

Data set [1] can be described thus: Determination of the surface tension. The class given is physicochemical. Conditions: 25° C.; UV absorber concentrations from about 1 mg/l to 5,000 mg/l. The method, then: The surface tension (ST) of the UV absorbers 1C and 1F was determined at 25° C. at concentrations of the UV absorber of from about 1 mg/l to 5,000 mg/l (Table 4). The ST of water to air is, for comparison, 72.4 mN/m, the ST of commercial surfactants is about 30-35 mN/m. […] It was also shown that UV absorbers according to the invention are similar in surface activity to commercial surfactants.

Data set [2] is described as follows: UV-stabilizing effect: residual metaflumizone after exposure to light (Atlas Suntest), HPLC. The class given is physicochemical. Conditions: dried film; for Residual metaflumizone content (%) after 1 day: continuous light 1 day; for Residual metaflumizone content (%) after 1 week: continuous light seven days. The method, then:
UV-Stabilizing Effect A formulation comprising 100 g/l of metaflumizone and 40 g/l of UV absorber was prepared as described in Example 2. The formulation was diluted with water such that an active content of 10 g/l (Table 3) or 1 g/l (Table 4) was obtained.
About 20 mg of the formulation thus prepared were placed on a microscope slide, allowed to dry for 30 minutes and then exposed to light for one or seven days continuously (Atlas Suntest CRT plus, “Outdoor” setting, irradiation corresponds to the same spectrum and intensity as normal sunlight at midday in summer). After the exposure time, the samples were dissolved in dimethyl sulfoxide. The residual level of metaflumizone was determined by means of quantitative HPLC (column: BEH C18 1.7 μm 2.1×100; elution with a gradient of acetonitrile/0.1% H3PO4 rising from 5/95:95/5). For comparison, each exposure series run included a sample without UV absorber (reference). Evaluation: 2 samples were treated as blank samples by immediately redissolving them after drying, without exposure to light, and determining the metaflumizone content. The resulting mean was set equal to 100% and the remaining samples were standardized against that.
A commercial formulation of metaflumizone (Alverde®) comprising 240 g/l of metaflumizone was diluted with water to an active content of 10 g/l. Various UV absorbers were added (Table 5) and analyzed as described under Example 4A.

Setting [3] is: Alverde® diluted to 10 g/l metaflumizone, UV absorber added.
[4] abbreviates: formulation 100 g/l metaflumizone + 40 g/l UV absorber diluted to 1 g/l metaflumizone.
Setting [5] is: formulation 100 g/l metaflumizone + 40 g/l UV absorber diluted to 10 g/l metaflumizone.

Consider “3-(3-benzotriazol-2-yl-5-tert-butyl-4-hydroxyphenyl)propionic acid [tridecanol-EO18]ester [Example 1F]”, for which, in data set [1], the “ST (surface tension)” value turned out to be 34.7 mN/m.

On to `COCCOCCOCCOCCOCCOCCOCCOC(=O)CCc1cc(-n2nc3ccccc3n2)c(O)c(C(C)(C)C)c1` [Example 1C, 3-(3-benzotriazol-2-yl-5-tert-butyl-4-hydroxyphenyl)propionic acid [Pluriol A350E]ester], for which the “Residual metaflumizone content (%) after 1 day” value is on record as 34% in data set [2] (setting [3]), 45% in data set [2] (setting [4]) and 89% in data set [2] (setting [5]). Also, the “Residual metaflumizone content (%) after 1 week” value turned out to be 1% in data set [2] (setting [3]), 16% in data set [2] (setting [4]) and 55% in data set [2] (setting [5]). Moreover, in data set [1], the “ST (surface tension)” value came out at 39.5 mN/m.

As to “p-Aminobenzoic acid ethoxylate (45) [Uvinul ® P25]”, the “ST (surface tension)” value in data set [1] was 56.9 mN/m.

In the case of `COCCOCCOCCOCCOCCOCCOCCOC(=O)CCc1cc(-n2nc3ccc(Cl)cc3n2)c(O)c(C(C)(C)C)c1` [Example 1J, 2-(5-chloro-2H-benzotriazol-2-yl)-6-tert-butyl-4-hydroxyphenylpropionic acid [Pluriol A350E]ester], in data set [2] (setting [3]), the “Residual metaflumizone content (%) after 1 day” value is 46% and the “Residual metaflumizone content (%) after 1 week” value worked out at 30%.
